Source: patent US20230158034A1, “CO-TREATMENT WITH CDK4/6 AND CDK2 INHIBITORS TO SUPPRESS TUMOR ADAPTATION TO CDK2 INHIBITORS” (Pfizer Inc., priority 2020, published 2023)

System: phosphorylated peptides containing a minimal CDK consensus motif (SP or TP) in MCF7 cells
Assay: Phospho-proteomics (mass spectrometry) of CDK substrate phosphorylation after PF3600
Type: cell-based, Homo sapiens
Experimental: CDK2 substrate dynamics were globally assessed through phospho-proteomics.
Phospho-peptide enrichment was performed as previously described (Lapek et al., 2017b). Lyophilized phospho-peptides were then TMT-labeled and fractionated by reverse phase basic pH fractionation and fractions combined as previously described (Edwards and Haas, 2016). Fractions were lyophilized and stored at […] until MS analysis. For LC-MS2/MS3 analysis, samples were reconstituted in 10 μL of 5% acetonitrile in 5% formic acid and 8 μL of each fraction was injected on the Orbitrap Fusion Lumos for analysis.
Peptides were eluted on a 165-minute gradient of 7-32% solvent B (80% acetonitrile in 0.1% formic acid) at 300 nL/min on a PepMap RSLC C18 column (2 μm, 100 Å, 75 μm×50 cm) heated to 60° C. Spectra were acquired in Top Speed mode, with a 5 second cycle. MS1 data were collected in the Orbitrap at 60000 resolution across a range of 500-1500 m/z. An automatic gain control (AGC) target of 2×10^5 was used with a maximum injection time of 100 ms. MS2 data were acquired in the ion trap with a rapid scan rate, maximum injection time of 70 ms, and an AGC target of 2×10^4. The quadrupole was used for isolation, with an isolation window of 0.5 m/z. […]
Data were normalized in a multistep process as previously described (Lapek et al., 2017a). […] All phospho data was processed and analyzed at the peptide level.

C[C@@]1(O)CCC[C@H]1n1c(=O)c(C(F)F)cc2cnc(NC3CCN(S(C)(=O)=O)CC3)nc21 [PF3600, 6-(difluoromethyl)-8-[(1R,2R)-2-hydroxy-2-methylcyclopentyl]-2-{[1-(methylsulfonyl)-piperidin-4-yl]amino}pyrido[2,3-d]pyrimidin-7(8H)-one]
number of SP/TP peptides whose phosphorylation was significantly reduced (p<0.05) (25 nM PF3600, 1 hr): 40 peptides
fate of the reduced phosphopeptides at 24 hr (25 nM PF3600, 24 hr): vast majority of these rebounded to control levels
